In US20230017045A1, “PYRIDINE AND PYRIMIDINE CARBOXYLATE HERBICIDES AND METHODS OF USE THEREOF” (Dow AgroSciences LLC, priority 2017, published 2023):
Read-outs that look alike come from different tables or passages of the source.

Test system: test plant species
Experiment: Post-emergent herbicidal activity test (greenhouse, foliar spray, visual growth reduction)
Assay type: in vivo
Conditions: post-emergence, 336 h, 140 g ai/ha
Method in brief: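 Greenhouse plants at first–second true leaf stage sprayed overhead at 187 L/ha with compound in acetone/water/isopropanol/DMSO/crop oil/X-77 carrier; controls received solvent blank. Injury rated visually after 14 d on a 0–100% scale versus untreated and control plants, converted to growth reduction.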

[1] = ALOMY: blackgrass (Alopecurus myosuroides), 14 days after application, read-out: Visual Growth Reduction (%) 14 Days After Application, ALOMY
[2] = AMARE: redroot pigweed (Amaranthus retroflexus), 14 days after application, read-out: Visual Growth Reduction (%) 14 Days After Application, AMARE
[3] = AVEFA: wild oat (Avena fatua), 14 days after application, read-out: Visual Growth Reduction (%) 14 Days After Application, AVEFA
[4] = CHEAL: lambsquarters (Chenopodium album), 14 days after application, read-out: Visual Growth Reduction (%) 14 Days After Application, CHEAL
[5] = CIRAR: canada thistle (Cirsium arvense), 14 days after application, read-out: Visual Growth Reduction (%) 14 Days After Application, CIRAR
[6] = CYPES: yellow nutsedge (Cyperus esculentus), 14 days after application, read-out: Visual Growth Reduction (%) 14 Days After Application, CYPES
[7] = DIGSA: crabgrass (Digitaria sanguinalis), 14 days after application, read-out: Visual Growth Reduction (%) 14 Days After Application, DIGSA
[8] = ECHCG: barnyardgrass (Echinochloa crus-galli), 14 days after application, read-out: Visual Growth Reduction (%) 14 Days After Application, ECHCG
[9] = IPOHE: ivy-leaf morning glory (Ipomoea hederacea), 14 days after application, read-out: Visual Growth Reduction (%) 14 Days After Application, IPOHE
[10] = KCHSC: kochia (Bassia scoparia), 14 days after application, read-out: Visual Growth Reduction (%) 14 Days After Application, KCHSC
[11] = ORYSA: rice (Oryza sativa), 14 days after application, read-out: Visual Growth Reduction (%) 14 Days After Application, ORYSA
[12] = SETFA: giant foxtail (Setaria faberi), 14 days after application, read-out: Visual Growth Reduction (%) 14 Days After Application, SETFA
[13] = SORVU: grain sorghum (Sorghum vulgare), 14 days after application, read-out: Visual Growth Reduction (%) 14 Days After Application, SORVU
[14] = STEME: common chickweed (Stellaria media), 14 days after application, read-out: Visual Growth Reduction (%) 14 Days After Application, STEME
[15] = TRZAS: wheat, spring (Triticum aestivum), 14 days after application, read-out: Visual Growth Reduction (%) 14 Days After Application, TRZAS
[16] = blackgrass (Alopecurus myosuroides), 14 Days After Application, read-out: Visual Growth Reduction (%) ALOMY
[17] = canada thistle (Cirsium arvense), 14 Days After Application, read-out: Visual Growth Reduction (%) CIRAR
[18] = crabgrass (Digitaria sanguinalis), 14 Days After Application, read-out: Visual Growth Reduction (%) DIGSA
[19] = lambsquarters (Chenopodium album), 14 Days After Application, read-out: Visual Growth Reduction (%) CHEAL
[20] = redroot pigweed (Amaranthus retroflexus), 14 Days After Application, read-out: Visual Growth Reduction (%) AMARE
[21] = wild oat (Avena fatua), 14 Days After Application, read-out: Visual Growth Reduction (%) AVEFA
[22] = yellow nutsedge (Cyperus esculentus), 14 Days After Application, read-out: Visual Growth Reduction (%) CYPES

Compound | pest or weed control at 140 g/ha [1] [%] | pest or weed control at 140 g/ha [2] [%] | pest or weed control at 140 g/ha [3] [%] | pest or weed control at 140 g/ha [4] [%] | pest or weed control at 140 g/ha [5] [%] | pest or weed control at 140 g/ha [8] [%] | pest or weed control at 140 g/ha [9] [%] | pest or weed control at 140 g/ha [10] [%] | pest or weed control at 140 g/ha [11] [%] | pest or weed control at 140 g/ha [12] [%] | pest or weed control at 140 g/ha [13] [%] | pest or weed control at 140 g/ha [14] [%] | pest or weed control at 140 g/ha [15] [%] | pest or weed control at 140 g/ha [16] [%] | pest or weed control at 140 g/ha [17] [%] | pest or weed control at 140 g/ha [18] [%] | pest or weed control at 140 g/ha [19] [%] | pest or weed control at 140 g/ha [20] [%] | pest or weed control at 140 g/ha [21] [%] | pest or weed control at 140 g/ha [22] [%] | further results
COC(=O)c1nc(-c2cc(Cl)cnc2OC)ccc1Cl [F129, Methyl 5,5′-dichloro-2′-methoxy-[2,3′-bipyridine-6-carboxylate] | 0 to 29 | 0 to 29 | 0 to 29 | 0 to 29 | 0 to 29 | 0 to 29 | 0 to 29 | 0 to 29 | 0 to 29 | 0 to 29 | 0 to 29 | 0 to 29 | 0 to 29 |  |  |  |  |  |  |  | pest or weed control at 140 g/ha [6]: 0 to 29%; pest or weed control at 140 g/ha [7]: 0 to 29%
COC(=O)c1nc(-c2cc(C#N)c(C(F)(F)F)cc2Cl)c(F)cc1Cl [F321, Methyl 3-chloro-6-(2-chloro-5-cyano-4-(trifluoromethyl)phenyl)-5-fluoropicolinate] |  |  |  |  |  | 30 to 44 | 85 to 94 | 0 to 29 | 0 to 29 | 75 to 84 | 95 to 100 | 0 to 29 | 30 to 44 | 0 to 29 | 75 to 84 | 85 to 94 | 95 to 100 | 30 to 44 | 75 to 84 | 0 to 29 | 
COC(=O)c1nc(-c2ccc(F)c3c2OC(F)(F)O3)c(F)cc1Cl [F234, Methyl 3-chloro-5-fluoro-6-(2,2,7-trifluorobenzo[d][1,3]dioxol-4-yl)picolinate] |  |  |  |  |  | 0 to 29 | 60 to 74 | 0 to 29 | 0 to 29 | 0 to 29 | 0 to 29 | 0 to 29 | 0 to 29 | 0 to 29 | 0 to 29 | 30 to 44 | 30 to 44 | 0 to 29 | 0 to 29 | 0 to 29 | 
COC(=O)c1nc(-c2ccc(C(F)(F)F)cc2C(N)=O)ccc1Cl [F146, Methyl 6-(2-carbamoyl-4-(trifluoromethyl)phenyl)-3-chloropicolinate] | 0 to 29 | 0 to 29 | 0 to 29 | 0 to 29 | 0 to 29 | 0 to 29 | 30 to 44 | 0 to 29 | 0 to 29 | 0 to 29 | 0 to 29 | 0 to 29 | 0 to 29 |  |  |  |  |  |  |  | pest or weed control at 140 g/ha [6]: 0 to 29%; pest or weed control at 140 g/ha [7]: 0 to 29%
CCOc1cc(C(F)(F)F)ccc1-c1nc(C(=O)OC)c(Cl)cc1F [F311, Methyl 3-chloro-6-(2-ethoxy-4-(trifluoromethyl)phenyl)-5-fluoropicolinate] |  |  |  |  |  | 0 to 29 | 95 to 100 | 0 to 29 | 0 to 29 | 0 to 29 | 75 to 84 | 0 to 29 | 0 to 29 | 0 to 29 | 0 to 29 | 0 to 29 | 30 to 44 | 0 to 29 | 0 to 29 | 0 to 29 | 
